Earlier results in paper PMC9851200, “Multiparameter phenotypic screening for endogenous TFEB and TFE3 translocation identifies novel chemical series modulating lysosome function” (Autophagy, 2022).

Key:
Parameters in all cases: method as in original PKIS2 published data
[1] = target: kinases (KINOMEscan panel) (Homo sapiens, UniProt P00519); details: Published KINOMEscan, ref original PKIS2 published data, cited from earlier work
[2] = target: T1, kinases (KINOMEscan panel) (Homo sapiens, UniProt O14757); details: CHEK1; Published KINOMEscan; ref original PKIS2 published data; cited from earlier work
T1 sequence (O14757 1-476): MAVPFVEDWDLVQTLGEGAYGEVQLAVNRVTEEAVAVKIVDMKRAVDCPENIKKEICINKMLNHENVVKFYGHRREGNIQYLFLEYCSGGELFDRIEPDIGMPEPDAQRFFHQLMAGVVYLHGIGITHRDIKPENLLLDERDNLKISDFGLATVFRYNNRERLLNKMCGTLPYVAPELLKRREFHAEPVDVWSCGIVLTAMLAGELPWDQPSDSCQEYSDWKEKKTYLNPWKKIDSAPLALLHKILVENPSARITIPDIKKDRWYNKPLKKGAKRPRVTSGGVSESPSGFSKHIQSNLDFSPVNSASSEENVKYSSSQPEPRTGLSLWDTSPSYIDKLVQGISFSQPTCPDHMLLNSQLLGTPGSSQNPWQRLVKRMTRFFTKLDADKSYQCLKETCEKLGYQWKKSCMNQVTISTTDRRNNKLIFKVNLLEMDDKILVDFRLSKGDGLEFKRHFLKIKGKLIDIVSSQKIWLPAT

[3] = target: kinases (KINOMEscan panel) (Homo sapiens, UniProt Q13177); details: PAK2; Published KINOMEscan; ref original PKIS2 published data; cited from earlier work
[4] = target: kinases (KINOMEscan panel) (Homo sapiens, UniProt P21127); details: CDK11B; Published KINOMEscan; ref original PKIS2 published data; cited from earlier work
[5] = target: kinases (KINOMEscan panel) (Homo sapiens, UniProt P36894); details: kinase BMPR1A; Published KINOMEscan; ref original PKIS2 published data; cited from earlier work
[6] = target: kinases (KINOMEscan panel) (Homo sapiens, UniProt Q04912); details: MST1R; Published KINOMEscan; ref original PKIS2 published data; cited from earlier work
[7] = target: T2, kinases (KINOMEscan panel) (Homo sapiens, UniProt O75385); details: Published KINOMEscan; ref original PKIS2 published data; cited from earlier work
T2 sequence (O75385 1-1050): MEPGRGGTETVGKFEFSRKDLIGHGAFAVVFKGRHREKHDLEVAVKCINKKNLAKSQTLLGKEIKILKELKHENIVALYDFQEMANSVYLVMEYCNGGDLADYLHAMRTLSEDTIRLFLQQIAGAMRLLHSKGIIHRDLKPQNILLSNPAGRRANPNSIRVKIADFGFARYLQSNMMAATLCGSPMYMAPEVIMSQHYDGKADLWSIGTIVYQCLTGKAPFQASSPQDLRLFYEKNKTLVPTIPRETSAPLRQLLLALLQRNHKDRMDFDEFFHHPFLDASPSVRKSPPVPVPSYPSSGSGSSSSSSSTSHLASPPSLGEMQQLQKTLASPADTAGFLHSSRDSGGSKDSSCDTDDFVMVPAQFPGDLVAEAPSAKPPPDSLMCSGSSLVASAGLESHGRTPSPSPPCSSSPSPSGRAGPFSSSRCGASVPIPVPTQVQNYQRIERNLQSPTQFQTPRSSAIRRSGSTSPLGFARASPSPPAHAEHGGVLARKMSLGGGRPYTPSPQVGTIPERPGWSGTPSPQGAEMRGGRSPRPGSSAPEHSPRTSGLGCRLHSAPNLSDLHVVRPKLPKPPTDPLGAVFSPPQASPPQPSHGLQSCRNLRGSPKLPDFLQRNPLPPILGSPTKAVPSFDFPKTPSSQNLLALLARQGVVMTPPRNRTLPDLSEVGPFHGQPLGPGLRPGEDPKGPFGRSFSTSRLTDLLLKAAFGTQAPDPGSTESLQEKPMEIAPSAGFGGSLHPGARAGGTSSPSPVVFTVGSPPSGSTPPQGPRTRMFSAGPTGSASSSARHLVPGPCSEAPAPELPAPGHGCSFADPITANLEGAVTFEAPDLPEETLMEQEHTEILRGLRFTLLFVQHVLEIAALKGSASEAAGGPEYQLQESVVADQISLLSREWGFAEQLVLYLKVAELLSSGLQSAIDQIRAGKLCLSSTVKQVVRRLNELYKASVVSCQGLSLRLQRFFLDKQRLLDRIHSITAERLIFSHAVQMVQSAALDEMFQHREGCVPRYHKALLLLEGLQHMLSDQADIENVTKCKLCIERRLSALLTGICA

[8] = target: kinases (KINOMEscan panel) (Homo sapiens, UniProt O95747); details: Published KINOMEscan; ref original PKIS2 published data; cited from earlier work
Chain of kinases (KINOMEscan panel) (Homo sapiens, UniProt O95747) (O95747 whole entry): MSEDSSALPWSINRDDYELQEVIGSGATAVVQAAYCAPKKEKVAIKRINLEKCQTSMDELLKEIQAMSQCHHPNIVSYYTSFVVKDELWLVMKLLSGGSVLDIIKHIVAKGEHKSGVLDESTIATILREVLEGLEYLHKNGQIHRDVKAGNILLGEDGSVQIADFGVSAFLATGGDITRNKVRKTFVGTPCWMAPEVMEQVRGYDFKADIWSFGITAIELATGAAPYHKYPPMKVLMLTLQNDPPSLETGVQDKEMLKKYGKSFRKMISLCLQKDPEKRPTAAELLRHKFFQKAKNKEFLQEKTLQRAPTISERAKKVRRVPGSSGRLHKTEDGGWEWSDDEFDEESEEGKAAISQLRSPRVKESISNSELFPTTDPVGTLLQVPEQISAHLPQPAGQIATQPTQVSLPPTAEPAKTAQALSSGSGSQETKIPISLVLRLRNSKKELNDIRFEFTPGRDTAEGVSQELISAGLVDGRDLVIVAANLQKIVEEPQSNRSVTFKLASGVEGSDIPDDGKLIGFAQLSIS

Chain of kinases (KINOMEscan panel) (Homo sapiens, UniProt P00519) (P00519 whole entry): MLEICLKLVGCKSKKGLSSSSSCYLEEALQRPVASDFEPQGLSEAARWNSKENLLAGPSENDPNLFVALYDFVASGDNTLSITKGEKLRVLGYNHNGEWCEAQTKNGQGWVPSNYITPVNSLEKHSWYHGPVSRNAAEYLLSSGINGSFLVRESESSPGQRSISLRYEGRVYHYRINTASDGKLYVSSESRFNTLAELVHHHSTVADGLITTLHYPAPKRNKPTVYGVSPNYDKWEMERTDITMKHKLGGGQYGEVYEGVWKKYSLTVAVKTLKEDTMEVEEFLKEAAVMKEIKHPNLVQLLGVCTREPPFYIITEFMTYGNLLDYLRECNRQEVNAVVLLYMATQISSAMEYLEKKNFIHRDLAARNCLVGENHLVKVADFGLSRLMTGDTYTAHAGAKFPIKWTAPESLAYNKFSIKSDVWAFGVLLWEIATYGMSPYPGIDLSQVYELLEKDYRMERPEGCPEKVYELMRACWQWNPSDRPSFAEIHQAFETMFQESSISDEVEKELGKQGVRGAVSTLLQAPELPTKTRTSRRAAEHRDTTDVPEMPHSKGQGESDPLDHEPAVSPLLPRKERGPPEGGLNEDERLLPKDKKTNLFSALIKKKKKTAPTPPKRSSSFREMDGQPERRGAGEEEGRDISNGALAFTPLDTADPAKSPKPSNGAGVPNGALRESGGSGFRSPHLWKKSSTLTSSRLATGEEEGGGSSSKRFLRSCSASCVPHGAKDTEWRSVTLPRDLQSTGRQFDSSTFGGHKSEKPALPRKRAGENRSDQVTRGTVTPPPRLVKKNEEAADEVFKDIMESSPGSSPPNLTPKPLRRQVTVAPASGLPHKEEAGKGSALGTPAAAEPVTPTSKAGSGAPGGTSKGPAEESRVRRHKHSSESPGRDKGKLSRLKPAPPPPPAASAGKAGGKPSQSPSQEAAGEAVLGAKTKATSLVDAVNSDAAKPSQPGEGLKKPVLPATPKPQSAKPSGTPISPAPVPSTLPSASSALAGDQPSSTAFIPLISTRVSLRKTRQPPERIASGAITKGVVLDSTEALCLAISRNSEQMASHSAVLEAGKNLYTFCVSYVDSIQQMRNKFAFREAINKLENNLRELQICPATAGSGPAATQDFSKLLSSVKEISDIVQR
Chain of kinases (KINOMEscan panel) (Homo sapiens, UniProt P21127) (P21127 whole entry): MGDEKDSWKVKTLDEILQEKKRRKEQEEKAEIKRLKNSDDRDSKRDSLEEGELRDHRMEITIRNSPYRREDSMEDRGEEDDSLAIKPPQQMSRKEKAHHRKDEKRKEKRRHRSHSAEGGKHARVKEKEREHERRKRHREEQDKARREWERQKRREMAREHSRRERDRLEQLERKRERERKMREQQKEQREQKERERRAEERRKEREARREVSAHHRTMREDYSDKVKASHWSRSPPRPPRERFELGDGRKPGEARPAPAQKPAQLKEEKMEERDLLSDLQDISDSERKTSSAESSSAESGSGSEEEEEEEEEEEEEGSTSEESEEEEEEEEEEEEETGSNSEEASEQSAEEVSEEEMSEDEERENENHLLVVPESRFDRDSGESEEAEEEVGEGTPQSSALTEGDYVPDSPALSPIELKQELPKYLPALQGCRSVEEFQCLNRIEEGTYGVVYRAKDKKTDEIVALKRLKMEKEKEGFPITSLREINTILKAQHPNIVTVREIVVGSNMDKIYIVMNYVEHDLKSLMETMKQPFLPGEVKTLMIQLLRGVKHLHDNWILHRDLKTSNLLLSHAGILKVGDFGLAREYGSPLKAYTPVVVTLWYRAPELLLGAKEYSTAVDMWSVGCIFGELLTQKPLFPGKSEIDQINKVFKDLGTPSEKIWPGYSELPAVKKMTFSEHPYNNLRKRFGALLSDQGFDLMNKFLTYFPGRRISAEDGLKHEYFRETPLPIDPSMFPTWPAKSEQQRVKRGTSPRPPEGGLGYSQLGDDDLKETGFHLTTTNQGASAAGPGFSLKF
Chain of kinases (KINOMEscan panel) (Homo sapiens, UniProt Q13177) (Q13177 whole entry): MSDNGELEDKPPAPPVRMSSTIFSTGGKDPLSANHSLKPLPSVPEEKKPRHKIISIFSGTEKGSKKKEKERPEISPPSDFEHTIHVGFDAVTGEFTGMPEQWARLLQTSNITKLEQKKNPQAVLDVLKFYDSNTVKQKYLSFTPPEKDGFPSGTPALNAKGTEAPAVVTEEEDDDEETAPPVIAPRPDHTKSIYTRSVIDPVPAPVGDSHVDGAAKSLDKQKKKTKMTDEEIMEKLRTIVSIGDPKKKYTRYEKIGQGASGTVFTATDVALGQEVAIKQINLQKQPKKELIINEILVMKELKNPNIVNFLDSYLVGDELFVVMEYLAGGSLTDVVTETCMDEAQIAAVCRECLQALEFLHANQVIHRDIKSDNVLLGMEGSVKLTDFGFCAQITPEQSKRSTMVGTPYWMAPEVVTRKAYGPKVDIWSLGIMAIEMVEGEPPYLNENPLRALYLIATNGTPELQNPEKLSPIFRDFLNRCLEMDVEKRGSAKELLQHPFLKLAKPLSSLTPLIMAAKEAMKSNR
Chain of kinases (KINOMEscan panel) (Homo sapiens, UniProt Q04912) (Q04912 25-1400): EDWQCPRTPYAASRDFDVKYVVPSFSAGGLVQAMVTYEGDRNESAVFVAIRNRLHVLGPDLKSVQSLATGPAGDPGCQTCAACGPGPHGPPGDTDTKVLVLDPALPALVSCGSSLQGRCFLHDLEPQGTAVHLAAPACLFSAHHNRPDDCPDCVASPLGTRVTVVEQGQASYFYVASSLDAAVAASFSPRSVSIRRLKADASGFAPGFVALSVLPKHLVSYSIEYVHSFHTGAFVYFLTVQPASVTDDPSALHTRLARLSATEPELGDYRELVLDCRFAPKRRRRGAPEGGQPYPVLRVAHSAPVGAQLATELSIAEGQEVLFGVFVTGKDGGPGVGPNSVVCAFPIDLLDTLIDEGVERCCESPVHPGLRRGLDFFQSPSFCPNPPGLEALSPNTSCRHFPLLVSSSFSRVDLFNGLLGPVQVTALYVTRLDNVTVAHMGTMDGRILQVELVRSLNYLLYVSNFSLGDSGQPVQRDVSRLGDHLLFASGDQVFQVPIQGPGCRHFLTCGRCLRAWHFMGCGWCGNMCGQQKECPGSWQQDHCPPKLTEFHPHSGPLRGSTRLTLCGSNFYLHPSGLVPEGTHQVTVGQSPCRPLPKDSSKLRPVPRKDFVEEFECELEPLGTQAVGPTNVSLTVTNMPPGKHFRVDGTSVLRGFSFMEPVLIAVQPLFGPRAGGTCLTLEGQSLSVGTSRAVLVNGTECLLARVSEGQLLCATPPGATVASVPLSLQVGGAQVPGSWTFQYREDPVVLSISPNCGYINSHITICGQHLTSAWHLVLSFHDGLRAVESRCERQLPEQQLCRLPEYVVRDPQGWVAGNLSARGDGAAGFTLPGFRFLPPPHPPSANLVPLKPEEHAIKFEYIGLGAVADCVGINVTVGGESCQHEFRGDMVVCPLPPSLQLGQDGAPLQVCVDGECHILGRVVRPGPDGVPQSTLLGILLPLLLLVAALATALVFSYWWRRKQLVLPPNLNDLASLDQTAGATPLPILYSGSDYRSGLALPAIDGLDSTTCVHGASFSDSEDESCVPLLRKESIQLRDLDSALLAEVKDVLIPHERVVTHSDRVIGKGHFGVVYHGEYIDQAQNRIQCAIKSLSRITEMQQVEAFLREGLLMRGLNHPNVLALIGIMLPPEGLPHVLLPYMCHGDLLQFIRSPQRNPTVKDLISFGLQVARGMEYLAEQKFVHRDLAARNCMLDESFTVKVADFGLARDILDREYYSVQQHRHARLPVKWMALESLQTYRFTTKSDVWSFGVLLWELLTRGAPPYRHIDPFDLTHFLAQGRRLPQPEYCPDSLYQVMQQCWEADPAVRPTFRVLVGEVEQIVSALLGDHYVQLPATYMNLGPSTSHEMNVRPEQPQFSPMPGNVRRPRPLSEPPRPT
Chain of kinases (KINOMEscan panel) (Homo sapiens, UniProt P36894) (P36894 24-532): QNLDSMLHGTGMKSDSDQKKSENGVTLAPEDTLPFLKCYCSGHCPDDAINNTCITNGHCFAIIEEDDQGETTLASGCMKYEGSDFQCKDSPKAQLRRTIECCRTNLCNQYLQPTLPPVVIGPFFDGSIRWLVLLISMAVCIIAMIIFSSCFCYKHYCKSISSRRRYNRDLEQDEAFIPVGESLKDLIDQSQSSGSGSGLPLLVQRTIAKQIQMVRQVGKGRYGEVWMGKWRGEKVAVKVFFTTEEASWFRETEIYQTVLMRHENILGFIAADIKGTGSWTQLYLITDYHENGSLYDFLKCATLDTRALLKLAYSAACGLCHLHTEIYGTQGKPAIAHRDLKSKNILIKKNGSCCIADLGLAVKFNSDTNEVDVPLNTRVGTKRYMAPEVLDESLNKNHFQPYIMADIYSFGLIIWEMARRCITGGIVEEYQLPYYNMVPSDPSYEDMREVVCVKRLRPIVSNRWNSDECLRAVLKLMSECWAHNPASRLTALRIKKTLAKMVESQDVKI

SMILES: Cc1cccc(-c2nc(Nc3ccncc3)c3ccccc3n2)n1 [NK215]
- KINOMEscan ABL1-nonphosphorylated ([1]; ABL1-nonphosphorylated): 39
- KINOMEscan ABL1-phosphorylated ([1]; ABL1-phosphorylated): 28
- KINOMEscan CHEK1 [2]: 0
- KINOMEscan PAK2 [3]: 0
- KINOMEscan CDK11B [4]: 0
- KINOMEscan BMPR1A [5]: 0
- KINOMEscan MST1R [6]: 0
- KINOMEscan ULK1 [7]: 0
- KINOMEscan OSXR1 [8]: 0
